This is an account of results in paper PMC11397035, “In Vitro and In Silico Analysis of PTP1B Inhibitors from Cleistocalyx operculatus Leaves and Their Effect on Glucose Uptake” (Nutrients, 2024).

Structures are written as SMILES. “Also recorded” adds a separate entry of the source. Like-named read-outs stand apart in the source and are kept apart here.

A word on the IC50: it is the concentration at which inhibition is half-maximal. As usually defined, the Ki is the dissociation constant of the complex between target and ligand, obtained from inhibition or displacement. Low values mean higher affinity, high ones lower affinity.

The target of assay [1] is T1, PTP1B (Homo sapiens, UniProt P18031).
T1 construct: purchased Enzo Life Sciences Inc
T1 sequence (P18031 1-435): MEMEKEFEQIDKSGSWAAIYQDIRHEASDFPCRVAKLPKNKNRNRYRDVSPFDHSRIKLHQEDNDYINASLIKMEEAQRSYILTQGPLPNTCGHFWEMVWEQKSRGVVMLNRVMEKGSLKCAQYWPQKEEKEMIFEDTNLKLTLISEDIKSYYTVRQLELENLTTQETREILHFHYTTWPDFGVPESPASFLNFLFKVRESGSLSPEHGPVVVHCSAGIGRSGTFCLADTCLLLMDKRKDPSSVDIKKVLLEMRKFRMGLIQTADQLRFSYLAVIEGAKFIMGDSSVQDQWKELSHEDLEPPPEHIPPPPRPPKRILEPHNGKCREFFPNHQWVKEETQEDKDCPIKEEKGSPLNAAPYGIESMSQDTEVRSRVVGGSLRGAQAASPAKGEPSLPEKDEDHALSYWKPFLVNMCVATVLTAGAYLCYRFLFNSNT
Briefly: In vitro PTP1B inhibition assay (p-NPP substrate). It counts as biochemical. Here is the method:
PTP1B enzyme inhibition activity was assessed following a previously described protocol. […] It was followed by incubation at 37 °C for 30 min. After that, 10 μL of 10 M NaOH was added to quench the reaction. […] The non-enzymatic reaction of the substrate was considered and accounted for by comparing data to a control experiment without the PTP1B enzyme. IC50 values were calculated using non-linear regression in GraphPad Prism 10 (GraphPad Software, Inc., San Diego, CA, USA), based on triplicate experiments.

Assay [2] concerns the target T1, PTP1B. The assay can be described thus: Kinetic analysis with PTP1B (Lineweaver–Burk and Dixon plots). It counts as biochemical. The following applies: for Ki: determined by Dixon plot interpretation; for Inhibition Type: determined by Lineweaver–Burk plots. Here is the method:
Reaction velocity was measured at different concentrations of tested compounds for kinetic analysis. The tested compounds or DMSO were preincubated with the enzyme and buffer solution at 37 °C for 2 min, followed by adding 50 μL of substrate (p-NPP) at different concentrations. The initial reaction velocities were monitored at 37 °C at 405 nm for 15 min. The kinetic reaction slopes were calculated based on the absorbance increments observed between 2 and 10 min (within the linear range). GraphPad Prism 10 (GraphPad Software, Inc., San Diego, CA, USA) was used to graph the double reciprocal Lineweaver–Burk and Dixon plots.

Assay [3] concerns 3T3-L1 adipocytes. The assay can be described thus: Glucose uptake using the 2-NBDG probe in differentiated 3T3-L1 adipocytes. It counts as cell-based. The settings on record: 1 h; for glucose uptake (2-NBDG) stimulatory effect: 20 μM; for concentration-response of glucose uptake stimulation: 5, 10, and 20 μM. Here is the method: 3T3-L1 fibroblasts were cultured in DMEM (HyClone, Logan, UT, USA) supplemented with 10% calf serum, 100 U/mL penicillin, and 100 μg/mL streptomycin from Gibco (Grand Island, NY, USA). The cells were incubated at 37 °C with 5% CO2. Cells were differentiated after treatment with DMEM enriched with 10% fetal bovine serum (FBS) (HyClone, Logan, UT, USA), 1 μM dexamethasone (Sigma, St. Louis, MO, USA), 520 μM 3-isobutyl-1-methylxanthine (Sigma, St. Louis, MO, USA), and 1 μg/mL insulin (Roche, Mannheim, Germany). After 48 h, the media were changed with fresh DMEM containing 10% FBS, 1 μg/mL insulin, 100 U/mL penicillin, and 100 μg/mL streptomycin. Every 48 ours, the media were replaced until the induction of adipogenesis. Intracellular lipid droplets appeared after 4 to 6 days of incubation.
In vitro experiments measured glucose uptake in 3T3-L1 adipocytes using 2-NBDG, a fluorescent glucose derivative (Invitrogen, Eugene, OR, USA). Cells were cultured on 96-well plates in a glucose-free medium supplemented with 10% FBS. After incubation, cells were treated with either insulin (as a positive control) or the test compounds in the presence or absence of 2-NBDG and were further incubated for an additional hour. Cells were washed with cold phosphate-buffered saline (PBS). The 2-NBDG fluorescence was quantified by measuring the signal intensity at excitation/emission wavelengths of 450/535 nm using a SpectraMax Gemini XPS fluorescence microplate reader (Molecular Devices, San Jose, CA, USA). For cellular transport studies involving 2-NBDG, 3T3-L1 adipocytes were grown on sterilized glass coverslips in a glucose-free medium containing 10% FBS for 24 h. After treatment with 2-NBDG, cells were washed with cold PBS. Fluorescent images were obtained with an Olympus IX 70 fluorescence microscope (Olympus Corporation, Tokyo, Japan) to quantify the cellular transport of 2-NBDG.

Assay [4] has as its system 3T3-L1 adipocytes. Further details: method as in PMID 27765349. The following applies: cited from earlier work.
Assay [5] has as its system pre-diabetic male Sprague Dawley rats. Further details: method as in PMID 29596390. The following applies: pre-diabetic male Sprague Dawley rats ref 44; cited from earlier work.
Setting [6] is: 50% PTP1B inhibitory effect, mean ± S.E.M. of triplicate experiments, six concentrations, read-out: IC50.

On to `CC1(C)CC[C@]2(C(=O)O)CC[C@]3(C)C(=CCC4[C@@]5(C)C[C@@H](O)[C@H](OC(=O)/C=C\c6ccc(O)cc6)C(C)(C)C5CC[C@]43C)C2C1` (some centres unmarked) [Compound 17, 3-O-(Z)-p-coumaroyl maslinic acid], for which the “PTP1B inhibitory activity (in words)” value in assay [1] is “strong PTP1B inhibitory activities; also recorded: significant inhibitory activity”. Besides, in assay [1] (setting [6]), the IC50 amounted to 2.6 ± 0.3 µM. Moreover, in assay [2], the Ki turned out to be 2.7 ± 0.4 µM and the “Inhibition Type” value is “non-competitive inhibitor of PTP1B”. For the same compound, in assay [3], the “glucose uptake (2-NBDG) stimulatory effect” value is given as “showed glucose uptake stimulatory effects; also recorded: particularly potent glucose uptake stimulatory effects” and the “concentration-response of glucose uptake stimulation” value (“concentration-response” for short) is recorded as “dose dependent”.

As to `C=C(C)C1CCC2(C(=O)OC)CCC3(C(=O)O)C(CCC4C5(C)CCC(O)C(C)(CO)C5CCC43C)C12` (centres unmarked) [Compound 2, Cleistocalyxic acid M], the IC50 in assay [1] (setting [6]) is more than 20 µM.

For `CC1(C)CC[C@]2(C(=O)O)CC[C@]3(C)C(=CC[C@@H]4[C@@]5(C)C[C@@H](O)[C@H](O)[C@@](C)(CO)[C@@H]5CC[C@]43C)[C@@H]2C1` [Compound 15, arjunolic acid], the concentration for half-maximal inhibition (IC50) in assay [1] (setting [6]) came to 6.6 ± 0.6 µM.

With `C=C(C)[C@@H]1CC[C@]2(C(=O)OC)CC[C@]3(C(=O)O)C(CCC4[C@@]5(C)CC[C@H](O)C(C)(C)C5CC[C@]43C)C12` (some centres unmarked) [Compound 4, melaleucic acid 28-O-methyl ester], the IC50 in assay [1] (setting [6]) came to 8.7 ± 0.6 µM.

For the compound `C=C1C2CC[C@]3(C)C(CC=C4C5[C@](C(=O)O)(CC[C@@H](C)[C@@]5(C)O)CC[C@]43C)[C@@]2(C)C[C@@H](O)[C@@H]1O` (stereo partly drawn) [Compound 10, 2α,3β,19α-trihydroxy-24-norurs-4(23),12-dien-28-oic acid], the half-inhibitory concentration (IC50) in assay [1] (setting [6]) was determined as 12.2 ± 0.3 µM.

Consider `C=C1CCC23CCC4(C)C5(C)CCC6C(=C)C(O)C(O)CC6(C)C5C5OC5C4(OC2=O)C3C1C` (centres unmarked) [Compound 3, Cleistocalyxolide C], for which the “PTP1B inhibitory activity (in words)” value in assay [1] was “reduced inhibitory effects”. The IC50 in assay [1] (setting [6]) is more than 20 µM. The “glucose uptake (2-NBDG) stimulatory effect” value in assay [3] is “low glucose uptake stimulation”.

In the case of `C=C(CO)C1CCC2(C(=O)OC)CCC3(C(=O)O)C(CCC4C5(C)CCC(O)C(C)(C)C5CCC43C)C12` (centres unmarked) [Compound 1, Cleistocalyxic acid L], in assay [1] (setting [6]), the IC50 is more than 20 µM.

On to `C=C1[C@@H](O)[C@H](O)C[C@]2(C)[C@H]3CC=C4[C@@H]5[C@@H](C)[C@H](C)CC[C@]5(C(=O)O)CC[C@@]4(C)[C@]3(C)CC[C@@H]12` [Compound 11, ilekudinol B], for which the IC50 in assay [1] (setting [6]) was found to be 14.1 ± 0.3 µM.

As to `CC1(C)CC[C@]2(C(=O)O)CC[C@]3(C)C(=CCC4[C@@]5(C)C[C@@H](O)[C@H](OC(=O)/C=C/c6ccc(O)cc6)C(C)(C)C5CC[C@]43C)C2C1` (some centres unmarked) [Compound 16, 3-O-(E)-p-coumaroyl maslinic acid], the IC50 in assay [1] (setting [6]) was found to be 3.6 ± 0.4 µM. Besides, the “glucose uptake (2-NBDG) stimulatory effect” value in assay [3] is recorded as “showed glucose uptake stimulatory effects”.

As for `CC1(C)CC[C@]2(C(=O)O)CC[C@]3(C)C(=CC[C@@H]4[C@@]5(C)C[C@@H](O)[C@H](O)C(C)(C)[C@@H]5CC[C@]43C)[C@@H]2C1` [Compound 13, maslinic acid], in assay [1], it took 1.28 ± 0.1 µM to reach half-maximal inhibition (IC50) and the “PTP1B inhibitory activity (in words)” value is recorded as “significant inhibitory activity”. In assay [4], the glucose uptake entry was “increased glucose uptake”; the “intracellular Ca2+ concentration” value is listed as “raised intracellular Ca^2+ concentration”; the “lipid droplet and triglyceride levels” value is “reduced lipid droplet and triglyceride levels”. Also, in assay [2], the Ki is 3.2 ± 0.6 µM and the “Inhibition Type” value is “non-competitive inhibitor of PTP1B”. Besides, in assay [3], the “glucose uptake (2-NBDG) stimulatory effect” value is on record as “showed glucose uptake stimulatory effects; also recorded: particularly potent glucose uptake stimulatory effects” and the “concentration-response” value was “dose dependent”.

Consider `CC1(C)CC[C@]2(C(=O)O)CC[C@]3(C)C(=CC[C@@H]4[C@@]5(C)CC[C@H](O)C(C)(C)[C@@H]5CC[C@]43C)[C@@H]2C1` [Compound 12, oleanolic acid], for which, in assay [5], the “glucose homeostasis and progression of type 2 diabetes” value was “improve glucose homeostasis and prevent the progression of type 2 diabetes”. The “glucose uptake (2-NBDG) stimulatory effect” value in assay [3] is “showed glucose uptake stimulatory effects”.

`C=C(C)[C@@H]1CC[C@]2(C(=O)O)CC[C@]3(C)[C@H](CC[C@@H]4[C@@]5(C)CC[C@H](O)C(C)(C)[C@@H]5CC[C@]43C)[C@@H]12` [Compound 5, betulinic acid]: the “PTP1B inhibitory activity (in words)” value in assay [1] was “significant inhibitory activity”. Further, in assay [1] (setting [6]), the IC50 turned out to be 2.2 ± 0.1 µM.

Consider `C=C1[C@@H](O)[C@H](O)C[C@]2(C)[C@H]3[C@@H]4O[C@@H]4[C@]45OC(=O)[C@@]6(CC[C@@H](C)[C@H](C)[C@H]64)CC[C@@]5(C)[C@]3(C)CC[C@@H]12` [Compound 7, ulmoidol], for which the “PTP1B inhibitory activity (in words)” value in assay [1] was “reduced inhibitory effects”. The IC50 in assay [1] (setting [6]) is more than 20 µM. Besides, the “glucose uptake (2-NBDG) stimulatory effect” value in assay [3] was “low glucose uptake stimulation”.

Take `C[C@@H]1CC[C@]2(C(=O)O)CC[C@]3(C)C(=CCC4[C@@]5(C)C[C@@H](O)[C@H](O)[C@@](C)(CO)C5CC[C@]43C)C2[C@]1(C)O` (some centres unmarked) [Compound 9]: the “PTP1B inhibitory activity (in words)” value in assay [1] is on record as “strong PTP1B inhibitory activities”. Also, in assay [1] (setting [6]), the IC50 is 4.4 ± 0.5 µM. In assay [2], affinity was put at a Ki of 7.6 ± 1.2 µM and the “Inhibition Type” value was “non-competitive inhibitor of PTP1B”.

Turning to `CC1(C)CC[C@]2(CO)CC[C@]3(C)C(=CC[C@@H]4[C@@]5(C)CC[C@H](O)C(C)(C)[C@@H]5CC[C@]43C)[C@@H]2C1` [Compound 14, erythrodiol], the half-maximal inhibitory concentration (IC50) in assay [1] (setting [6]) worked out at 3.6 ± 0.2 µM.

`CC1(C)CCC23CCC4(C)C5(C)CCC6C(C)(C)C(O)C(O)CC6(C)C5CC(O)C4(OC2=O)C3C1` (centres unmarked) [Compound 8, (2a, 3b, 12a)-trihydorxy-olean-28-oic acid 28,13-lactone]: the “PTP1B inhibitory activity (in words)” value in assay [1] was “reduced inhibitory effects”. The half-inhibitory concentration (IC50) in assay [1] (setting [6]) was more than 20 µM. In addition, in assay [3], the “glucose uptake (2-NBDG) stimulatory effect” value was “low glucose uptake stimulation”.

`C=C(C)[C@@H]1CC[C@]2(C(=O)O)CC[C@]3(C)[C@H](CC[C@@H]4[C@@]5(C)C[C@@H](O)[C@H](O)C(C)(C)[C@@H]5CC[C@]43C)[C@@H]12` [Compound 6, alphitolic acid]: the “PTP1B inhibitory activity (in words)” value in assay [1] is “strong PTP1B inhibitory activities”. The half-maximal inhibitory concentration (IC50) in assay [1] (setting [6]) came out at 4.1 ± 0.2 µM. In addition, in assay [2], the Ki worked out at 2.8 ± 0.4 µM and the “Inhibition Type” value is given as “non-competitive inhibitor of PTP1B”. Further, in assay [3], the “glucose uptake (2-NBDG) stimulatory effect” value is recorded as “showed glucose uptake stimulatory effects; also recorded: particularly potent glucose uptake stimulatory effects” and the “concentration-response” value is listed as “dose dependent”.
